This note sets out measurements from the supplement of paper PMC10307832.

Common to all, as to assay: relative viability (nuclei count vs DMSO), 5 days (fraction); higher = more cells survive
Compound in the test “Bortezomib + Pictilisib”: CC(C)C[C@H](NC(=O)[C@H](Cc1ccccc1)NC(=O)c1cnccn1)B(O)O [Bortezomib] + CS(=O)(=O)N1CCN(Cc2cc3nc(-c4cccc5[nH]ncc45)nc(N4CCOCC4)c3s2)CC1 [Pictilisib] (partner 1 µM)
Summed up:
(§1)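 Lung cancer cell lines were seeded in 1536-well plates and dosed by pin tool the next day, with either a single drug or a fixed anchor-drug dose combined with five library-drug doses (not always all listed) spaced in √10 steps. Five days later, one step fixed the cells and stained their nuclei (final 0.05% Triton X-100, 1% formaldehyde, 1 ug/ml Hoechst), and nuclei were counted on 4× images. Relative viability is the nuclei count in treated wells divided by the count in vehicle wells, and each value is the median of duplicate plates.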

Compound in test [1]: CC1=CC(=NN1)NC2=CC(=NC(=N2)/C=C/C3=CC=CC=C3)N4CCN(CC4)C + COc1cccc2cc(-c3nc([C@H]4CC[C@H](C(=O)O)CC4)n4ncnc(N)c34)[nH]c12 [OSI-027] (partner 0.5 µM)
Put shortly: as §1

Compound in test [2]: CC1=CC(=NN1)NC2=CC(=NC(=N2)/C=C/C3=CC=CC=C3)N4CCN(CC4)C + Cc1cc(Nc2cc(N3CCN(C)CC3)nc(Sc3ccc(NC(=O)C4CC4)cc3)n2)n[nH]1 [Tozasertib] (partner 0.1 µM)
Summed up:
as §1

Compound in the test “Obatoclax + Crizotinib”: COC1=CC(c2cc3ccccc3[nH]2)=N/C1=C\c1[nH]c(C)cc1C [Obatoclax] + C[C@@H](Oc1cc(-c2cnn(C3CCNCC3)c2)cnc1N)c1c(Cl)ccc(F)c1Cl [Crizotinib] (partner 1 µM)
Put shortly: as §1

With NCI-H650, the relative viability was 0.695 with Bortezomib + Pictilisib (first compound 0.000632 µM); 0.551 with Bortezomib + Pictilisib (first compound 0.002 µM); 0.328 in the test with Bortezomib + Pictilisib (first compound 0.006325 µM); 0.205 with Bortezomib + Pictilisib (first compound 0.02 µM); 0.597 in test [1] (first compound 0.253 µM); 0.575 in test [1] (first compound 0.8 µM). In addition, the relative viability amounted to 0.47 in test [1] (first compound 2.53 µM); 0.172 in test [1] (first compound 8 µM); 0.822 in test [2] (first compound 0.253 µM); 0.603 in test [2] (first compound 0.8 µM); 0.4 in test [2] (first compound 2.53 µM); 0.173 in test [2] (first compound 8 µM). Also, the relative viability with Obatoclax + Crizotinib (first compound 0.01 µM) turned out to be 0.717; with Obatoclax + Crizotinib (first compound 0.03162 µM), 0.668; with Obatoclax + Crizotinib (first compound 0.1 µM), 0.561; in the test with Obatoclax + Crizotinib (first compound 0.3162 µM) it was 0.498; with Obatoclax + Crizotinib (first compound 1 µM), 0.323.
